This series can be described thus: recombinant UMI read abundance after kanamycin selection (control-corrected) (log10(CPM+1)); higher = more efficient recombination; extreme values may be limits of the assay; sequences stand for … in AGTGCAGAGAAAATCGGCCAGTTTTCTCTGCCTGCAGTCCGCATGCCGTGGGACCCCTTGGGTTCTAACCTGTTGCCTAGATTTATGCAGCGGACTGCCTTTCTCCCAAAGTGATAAACCGG…AGGTTGGTTTCACT; site = the 11-nt donor. An outline of the steps:
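Each donor and donor-binding-loop pair was tracked by a 12-nt UMI on a plasmid carrying a promoterless kanamycin gene. With a second plasmid supplying a fixed target and T7-inducible IS621 bridge recombinase, the pool was plated in Escherichia coli on IPTG (0.07 mM) plus kanamycin or unselected. Sequencing of recombinant UMIs across the donor–target junction gave counts expressed as log10(CPM+1) after replicate averaging and control-derived scaling.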
On to “AGCCTTTCATGGACCGGTTTTCCCGGTAATCCGTATTTGAC (site AGCCTTCCTGT)”, for which the “recombinant UMI read abundance (log10)” value stood at 0.
To “AGCCTTTCATGGACCGGTTTTCCCGGTAATCCGTATTTGAC (site AGCCTTGCTGT)” belongs 0; to “AGCCTTTCATGGACCGGTTTTCCCGGTAATCCGTATTTGAC (site AGCCTTTCTAT)”, 0; to “AGCCTTTCATGGACCGGTTTTCCCGGTAATCCGTATTTGAC (site AGCCTTTCTCT)”, 0.00414.
The same measure for “AGCCTTTCATGGACCGGTTTTCCCGGTAATCCGTATTTGAC (site AGCCTTTCTGA)”: 0.
To “AGCCTTTCATGGACCGGTTTTCCCGGTAATCCGTATTTGAC (site AGCCTTTCTGC)” belongs 0; to “AGCCTTTCATGGACCGGTTTTCCCGGTAATCCGTATTTGAC (site AGCCTTTCTGG)”, 0.
Turning to “AGCCTTTCATGGACCGGTTTTCCCGGTAATCCGTATTTGAC (site AGCCTTTCTGT)”, the “recombinant UMI read abundance (log10)” value was found to be 0.
To “AGCCTTTCATGGACCGGTTTTCCCGGTAATCCGTATTTGAC (site AGCCTTTCTTT)” belongs 0; to “AGCCTTTCATGGACCGGTTTTCCCGGTAATCCGTATTTGAC (site AGCGTTTCTGT)”, 0; to “AGCCTTTCATGGACCGGTTTTCCCGGTAATCCGTATTTGAC (site AGCTTTTCTGT)”, 0.
The same measure for “AGCCTTTCATGGACCGGTTTTCCCGGTAATCCGTATTTGAC (site AGGCTTTCTGT)”: 0; for “AGCCTTTCATGGACCGGTTTTCCCGGTAATCCGTATTTGAC (site AGTCTTTCTGT)”: 0.
Regarding “AGCCTTTCATGGACCGGTTTTCCCGGTAATCCGTATTTGAC (site ATCCTTTCTGT)”, the “recombinant UMI read abundance (log10)” value is 0.
Take “AGCCTTTCATGGACCGGTTTTCCCGGTAATCCGTATTTGAC (site CGCCTTTCTGT)”: the “recombinant UMI read abundance (log10)” value came out at 0.
To “AGCCTTTCATGGACCGGTTTTCCCGGTAATCCGTATTTGAC (site GGCCTTTCTGT)” belongs 0; to “AGCCTTTCATGGACCGGTTTTCCCGGTAATCCGTATTTGAC (site TGCCTTTCTGT)”, 0.
Take “AGCCTTTCATGGACCGGTTTTCCCGGTAATCCGTATTTGCC (site AGCCTTTCTGA)”: the “recombinant UMI read abundance (log10)” value worked out at 0.
On to “AGCCTTTCATGGACCGGTTTTCCCGGTAATCCGTATTTGCC (site AGCCTTTCTGC)”, for which the “recombinant UMI read abundance (log10)” value was determined as 0.
Consider “AGCCTTTCATGGACCGGTTTTCCCGGTAATCCGTATTTGCC (site AGCCTTTCTGG)”, for which the “recombinant UMI read abundance (log10)” value was 1.05.
The same measure for “AGCCTTTCATGGACCGGTTTTCCCGGTAATCCGTATTTGCC (site AGCCTTTCTGT)”: 0; for “AGCGCAGCATGGACCGGTTTTCCCGGTAATCCGTATTTGCG (site AGCGCAGCTCG)”: 1.01.
The same measure for “AGCGCAGCATGGACCGGTTTTCCCGGTAATCCGTATTTGGG (site AGCACAGCTCC)”: 0; for “AGCGCAGCATGGACCGGTTTTCCCGGTAATCCGTATTTGGG (site AGCCCAGCTCC)”: 0.0111.
To “AGCGCAGCATGGACCGGTTTTCCCGGTAATCCGTATTTGGG (site AGCGCAGCTCC)” belongs 0.0103; to “AGCGCAGCATGGACCGGTTTTCCCGGTAATCCGTATTTGGG (site AGCTCAGCTCC)”, 0.0119.
Consider “AGCGCGACATGGACCGGTTTTCCCGGTAATCCGTATTTGAG (site AGCGCGACTCT)”, for which the “recombinant UMI read abundance (log10)” value stood at 1.27.
To “AGCGGTCCATGGACCGGTTTTCCCGGTAATCCGTATTTGAC (site AGCGGTCCTGT)” belongs 0.
To “AGCTAACCATGGACCGGTTTTCCCGGTAATCCGTATTTGAA (site AGCTAACCTTT)” belongs 0.00558; to “AGCTAACCATGGACCGGTTTTCCCGGTAATCCGTATTTGTG (site AGCTAACCTCA)”, 0.00444.
The same measure for “AGCTACGCATGGACCGGTTTTCCCGGTAATCCGTATTTGGG (site AGCTACGCTCC)”: 0.0157.
For the sequence “AGCTATGCATGGACCGGTTTTCCCGGTAATCCGTATTTGAT (site AGCTATGCTAT)”, the “recombinant UMI read abundance (log10)” value was found to be 1.79.
The same measure for “AGCTCGGCATGGACCGGTTTTCCCGGTAATCCGTATTTGGG (site AGCTCAGCTCC)”: 0.0161; for “AGCTCGGCATGGACCGGTTTTCCCGGTAATCCGTATTTGGG (site AGCTCCGCTCC)”: 0.0225.
To “AGCTCGGCATGGACCGGTTTTCCCGGTAATCCGTATTTGGG (site AGCTCGGCTCC)” belongs 0; to “AGCTCGGCATGGACCGGTTTTCCCGGTAATCCGTATTTGGG (site AGCTCTGCTCC)”, 0; to “AGCTCTACATGGACCGGTTTTCCCGGTAATCCGTATTTGAA (site AGCTCTACTTT)”, 0.
Turning to “AGCTCTGCATGGACCGGTTTTCCCGGTAATCCGTATTTGGT (site AGCTCTGCTAC)”, the “recombinant UMI read abundance (log10)” value came to 1.36.
The same measure for “AGCTGAGCATGGACCGGTTTTCCCGGTAATCCGTATTTGCC (site AGCTGAGCTGG)”: 0.908; for “AGCTTGCCATGGACCGGTTTTCCCGGTAATCCGTATTTGGC (site AGCTTGCCTGC)”: 0.
In the case of “AGCTTGTCATGGACCGGTTTTCCCGGTAATCCGTATTTGAG (site AGCTTGTCTCT)”, the “recombinant UMI read abundance (log10)” value was found to be 1.62.
“AGGAAATCATGGACCGGTTTTCCCGGTAATCCGTATTTGCA (site AGGAAATCTTG)”: the “recombinant UMI read abundance (log10)” value was determined as 1.9.
For “AGGAAATCATGGACCGGTTTTCCCGGTAATCCGTATTTGCA (site AGGAAGACTTG)”, the “recombinant UMI read abundance (log10)” value turned out to be 0.
Regarding “AGGAAATCATGGACCGGTTTTCCCGGTAATCCGTATTTGGT (site AGGAAATCTAC)”, the “recombinant UMI read abundance (log10)” value is 1.73.
Regarding “AGGAAGACATGGACCGGTTTTCCCGGTAATCCGTATTTGCG (site AGGAAGACTAG)”, the “recombinant UMI read abundance (log10)” value was found to be 0.0723.
“AGGAAGACATGGACCGGTTTTCCCGGTAATCCGTATTTGCG (site AGGAAGACTCG)”: the “recombinant UMI read abundance (log10)” value came to 2.32.
The same measure for “AGGAAGACATGGACCGGTTTTCCCGGTAATCCGTATTTGCG (site AGGAAGACTGG)”: 0.
To “AGGAAGACATGGACCGGTTTTCCCGGTAATCCGTATTTGCG (site AGGAAGACTTG)” belongs 1.73.
The same measure for “AGGAATACATGGACCGGTTTTCCCGGTAATCCGTATTTGCT (site AGGAAGACTTG)”: 0; for “AGGAATACATGGACCGGTTTTCCCGGTAATCCGTATTTGCT (site AGGAATACTAG)”: 2.18; for “AGGAATCCATGGACCGGTTTTCCCGGTAATCCGTATTTGTA (site AGGAATCCTTA)”: 0.615.
Consider “AGGAATCCATGGACCGGTTTTCCCGGTAATCCGTATTTGTA (site CGGAATCCTAA)”, for which the “recombinant UMI read abundance (log10)” value came out at 0.00925.

Source of the values: the supplement of paper PMC11208160.
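Further: IS621 bridge recombinase in Escherichia coli cells against a fixed T5 target plasmid.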
